Test results as given in US7196163B2, “Assays using amyloid precursor proteins with modified β-secretase cleavage sites to monitor β-secretase activity” (Merk & Co., Inc., priority 2001, dated 2007).
Ends that are not written are not given here. coumarin = not defined here

What was measured:
anti-EVEFR antibodies = experiment: ORIGEN non-sandwich competition of peptides with binding of ruthenylated anti-EVEFR antibodies to biotinylated EVEFR; set-up: species or system rabbit; conditions: peptide added over a broad concentration range; FIGS. 3A, 3B
Method: Antibody specificity also was evaluated for both lots. An ORIGEN Analyzer (described below) was utilized in a non-sandwich assay to compare the ability of related polypeptides to compete with the binding of ruthenylated anti-EVEFR antibodies to biotinylated EVEFR (SEQ. ID. NO. 58). Certain peptides and conjugated peptides were added as treatments over a broad concentration range, and competitive titrations were made. […] The normal antigen is not acetylated.
Additionally, the specificity of the antibody raised against the EVEFR (SEQ.ID.NO.:58) sequence is tight enough that a conservative change in the epitope presented to the antibody, namely DVEFR(SEQ ID. NO. 60) where the NH-terminus E is conservatively changed to D, the antibody would only recognize the bona fide cleavage product. When measuring products in a cell-based environment, where thousands and perhaps millions of different proteins and epitopes are presented to the antibody, such specificity is required for the absolute measurement of the specific BACE cleavage product. Overall, the polyclonal rabbit antibodies raised against EVEFR (SEQ.ID.NO.:58) are shown to be sufficiently specific for use in detection analyses.
In certain embodiments the antibodies of the present invention are used in an electrochemiluminescence (ECL) detection method known in the art as “Origen” technology (Yang et al., 1994, Bio/Technology 12:193–194; Khorkova et al., 1998. Journal of Neuroscience Methods 82:159–166), and an Origen 1.5 Analyzer (Igen Inc., Gaithersburg, Md.). In embodiments using this ECL-based ORIGEN technology, each purified antibody lot is derivatized to a ruthenium tris-bipyridyl compound. The following provides one example of one of such embodiments.

HEK293T cells = experiment: Aβ (IP/Western) and sAPP (Western) produced by APP β-site mutants transiently transfected into HEK293T cells; assay type: cell-based; conditions: for Aβ level / sAPP level: transfected into 293T cells; for sAPP level: Western blot with LN27; for Aβ production compared with Swedish mutant and wild type APP695: HEK293T cells
Source text: In order to assess the relative suitability of modified β-secretase substrates as substrates that are more reactive than the wild type KMDA cleavage site, plasmid DNA constructs were made expressing 21 different modified β-secretase cleavage site sequences. Table 1, below, summarizes data obtained from most of these modified β-secretase substrates in HEK293T cells. The HEK293T cells were transfected with plasmids containing the genetic sequences for the APP695 polypeptides that contain each of these beta-site substitutions. These plasmids were prepared using the method described above in Example 1. Transient transfection was performed using LipofectaminePlus reagent (Gibco/BRL, Rockville, Md.) according to the instructions of the manufacturer. Media was harvested 48 hrs post transfection. Then Western blot analysis was used to determine levels of sAPP and IP/Western to determine levels of Aβ. Several volumes of conditioned media, 20 μl, 10 μl, 5 μl, 2.5 μl, from the transiently transfected cells were run on 10% SDS-PAGE gels and transferred to PVDF for the measurement of sAPP. Each blot contained a titration of wild type APP transfected conditioned media to normalize for any experimental variations derived from transferring of the gels and western blot detection. The blots were then probed with the antibody LN27 (Zymed, Calif.) to detect the secreted APP, sAPP. Densitometry of each western blot determined the relative amount of total APP expressed in each transfection.
To determine the levels of Aβ, each of the conditioned media was immuno-precipitated and analyzed via the following method. 5 μg of monoclonal antibody G2-10 (a monoclonal antibody that immunologically binds to the carboxyl end of Aβ40, licensed from University of Heidelberg) was added to 1 ml of each conditioned media. The mixture was rotated overnight at 4° C. for 16 hours. 25 μl of a 50% slurry of Protein A sepharose Fast flow beads (Amersham, N.J.) was added and incubation continued, rotating, for 2 hours at 4° C. The beads were pelleted and the supernatant was removed. The beads were washed once with 1 ml PBS. This material was then run on SDS-Tricine gels for analysis. 20 μl of 2×tricine loading buffer was added to the pellet and the mixture was heated at 95° C. for 5 minutes. A pipette tip was used to mix and load the whole mixture (beads included) onto a Bio-Rad 10–20% Tricine gel. The gels were electrophoresed at 125 Volts for 2 hours and 15 minutes and then transferred onto 0.2 μm nitrocellulose backed by a 0.1 μm nitrocellulose membrane for 75 minutes at 100V constant. Blots were then washed in PBS and boiled in PBS for 5 minutes before blocking in PBS plus 0.05% Tween-20 (PBST) with 5% non-fat milk for 60 minutes at room temperature. The milk was washed off twice with PBST and the blots were incubated overnight at 4° C. with G2-10 in PBST (1:1000 dilution). Blots were washed five times for 5 minutes each with large volumes of PBST and the secondary antibody of Goat anti-mouse IgG2b-HRP (Southern Biotechnology Associates, Inc., Birmingham, Ala.) was added at 1:5000 in PBST-5% milk and incubated, rocking, for 1 hour at room temperature. The blots were again washed, five times for 10 minutes each in large volumes of PBST. The substrate Pico ECL (Pierce) was added for 5 minutes and the blots were exposed to Kodak BioMax film. After western analysis was complete, the bands were quantitated by densitometry. For both the sAPP and the Aβ, the GFP control plasmid transfection serves as the background reference level (1×).

2081 antibody = experiment: Competition of peptides against biotinylated-SEVNF for binding of the 2081 antibody; set-up: species or system rabbit
Method: To determine the specificity of the 2081 antibody, competition experiments against the biotinylated-SEVNF with the following peptides were performed: SEVNF, SEVN, SEVNFE, SEVNL, and SEVNLD. The experiment was performed similar to the experiment outlined in Example 2 to determine the specificity of antibody 2081.

BACE 1 = BACE 1 (Homo sapiens, UniProt P56817); experiment: Homogeneous end point HPLC assay of BACE 1 cleavage of coumarin substrate; assay type: biochemical
Chain of BACE 1 (P56817 46-457 limits assumed): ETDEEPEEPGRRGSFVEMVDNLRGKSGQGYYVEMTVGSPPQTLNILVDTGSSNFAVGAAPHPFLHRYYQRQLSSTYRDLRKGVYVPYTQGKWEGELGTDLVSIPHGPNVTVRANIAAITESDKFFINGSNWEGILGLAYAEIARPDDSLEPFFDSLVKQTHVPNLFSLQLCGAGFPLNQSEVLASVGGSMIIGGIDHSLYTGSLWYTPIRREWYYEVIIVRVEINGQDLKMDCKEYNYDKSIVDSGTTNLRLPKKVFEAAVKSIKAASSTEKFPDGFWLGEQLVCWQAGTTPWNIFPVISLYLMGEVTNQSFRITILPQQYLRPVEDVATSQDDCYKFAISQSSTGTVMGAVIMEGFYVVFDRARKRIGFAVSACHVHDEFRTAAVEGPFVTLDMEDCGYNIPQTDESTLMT
Method: A typical reaction contains 2 nM enzyme, 1.0 μM of the substrate, and buffer (50 mM NaOAc, pH 4.5, 0.1 mg/ml BSA, 0.2% CHAPS, 15 mM EDTA and 1 mM deferoxamine) in a total reaction volume of 100 μL. The reaction is proceeded for 30 min and the reaction is stopped by the addition of 25 μL of 1 M Tris-HCl, pH 8.0. The resulting reaction mixture was loaded on the HPLC and the product was separated from substrate with 5 min linear gradient. […] The enzyme used in these studies was soluble (transmembrane domain and cytoplasmic extension excluded) human protein produced in a baculovirus expression system. […] All experiments were conducted at room temperature using the standard reaction conditions described above. To determine the IC50 of the compound, four parameters equation is employed for curve fitting.

[1] = test system: immortalized β-secretase-/-mouse fibroblast cells; experiment: Aβ production after transfection into immortalized β-secretase-/- mouse fibroblast cells, with or without human β-secretase; assay type: cell-based; conditions: no β-secretase co-transfected
Source text: Production of Aβ in β-secretase-/-cells could be rescued by co-transfection of the APP-derived polypeptides comprising modified β-secretase cleavage site sequences with human β-secretase.

Cultured cells = conditions: cultured cells expressing cDNA encoding APP; cited from earlier work

VEFR (peptide simulating cleaved portion from carboxy side of novel sequence at known enzyme cleavage site, lacking end amino acid)
competition with biotinylated EVEFR for anti-EVEFR binding (anti-EVEFR antibodies): slight competitive interference

NFAV: APP695-derived polypeptide with NFAV at the β-secretase cleavage site
Aβ level (HEK293T cells): below the limit of detection | sAPP level (HEK293T cells): below the limit of detection

NYAA: APP695-derived polypeptide with NYAA at the β-secretase cleavage site
Aβ level (HEK293T cells): below the limit of detection | sAPP level (HEK293T cells): below the limit of detection

NYDV: APP695-derived polypeptide with NYDV at the β-secretase cleavage site
Aβ level (HEK293T cells): below the limit of detection | sAPP level (HEK293T cells): below the limit of detection

SEVNLD
competition against biotinylated-SEVNF for binding of the 2081 antibody (2081 antibody): could not compete

DAEFR (peptide for use in antibody specificity evaluation)
competition with biotinylated EVEFR for anti-EVEFR binding (anti-EVEFR antibodies): unable to compete for binding

coumarin-CO-REVNFEVEFR
substrate processed by BACE 1 (BACE 1; 2 nM enzyme, 1.0 μM substrate, 30 min, pH 4.5, room temperature): less than 10% | Km (BACE 1; cannot be determined due to limit of solubility of the substrate): > 100 µM

NFEA: APP695-derived polypeptide with NFEA at the β-secretase cleavage site
Aβ level (HEK293T cells): below the limit of detection | sAPP level (HEK293T cells): below the limit of detection | production of Aβ [1]: no production of Aβ was observed

SEVNL
competition against biotinylated-SEVNF for binding of the 2081 antibody (2081 antibody): limited amount of competition | effectiveness of competition relative to SEVNF (2081 antibody; less effective than SEVNF): 100 fold

NFDV: APP695-derived polypeptide with NFDV at the β-secretase cleavage site
Aβ level (HEK293T cells): below the limit of detection | sAPP level (HEK293T cells): below the limit of detection

SEVNF (SEVNF-OH) [five C-terminal amino acids of the modified sAPPβ fragment]
competition against biotinylated-SEVNF for binding of the 2081 antibody (2081 antibody): could compete

acetylated-EVEFR (Ac-EVEFR)
competition with biotinylated EVEFR for anti-EVEFR binding (anti-EVEFR antibodies): does not bind well to the antibody

EVEFR (peptide simulating cleaved portion from carboxy side of novel sequence at known enzyme cleavage site) [penta-peptide at the amino-terminal end of CTFβ from NFEV or FFEV substrates]
competition with biotinylated EVEFR for anti-EVEFR binding (anti-EVEFR antibodies): competed with biotinylated EVEFR

FFAV: APP695-derived polypeptide with FFAV at the β-secretase cleavage site
Aβ level (HEK293T cells): below the limit of detection | sAPP level (HEK293T cells): below the limit of detection

NFEV: APP695-derived polypeptide with NFEV at the P2-P1-P1′-P2′ β-secretase cleavage site
Aβ production compared with Swedish mutant and wild type APP695 (HEK293T cells): high levels of Aβ, comparable to that generated by the APP Swedish mutant | rate of cleavage relative to similar substrate with wild-type KMDA sequence (HEK293T cells; in an APP backbone, expressed in tissue culture cells): 15–20 times | production of Aβ [1]: no production of Aβ was observed

SEVNFE
competition against biotinylated-SEVNF for binding of the 2081 antibody (2081 antibody): could not compete

KYAA: APP695-derived polypeptide with KYAA at the β-secretase cleavage site
Aβ level (HEK293T cells): below the limit of detection | sAPP level (HEK293T cells): below the limit of detection

SEVN
competition against biotinylated-SEVNF for binding of the 2081 antibody (2081 antibody): could not compete

coumarin-bound deca-peptide: coumarin-bound deca-peptide including the EVEFR sequence; possibly coumarin-CO-REVNFEVEFR (coumarin-REVNFEVEFR; not fully specified; printed as coumarin-CO-REVNFEVEFR; reading uncertain)
competition with biotinylated EVEFR for anti-EVEFR binding (anti-EVEFR antibodies): did not compete well

NLDA (Swedish): APP Swedish mutant, NLDA at the β-secretase cleavage site
Aβ produced relative to cells expressing wild-type APP (Cultured cells): 6–8 fold

NLDV: APP695-derived polypeptide with NLDV at the β-secretase cleavage site
Aβ production compared with Swedish mutant and wild type APP695 (HEK293T cells): over three times the level of wild type APP695 | Aβ Level produced by APP β-site mutants in HEK293T cells (HEK293T cells; media 48 hrs post transfection, IP/Western with G2-10, densitometry, GFP control = 1X): 10–15X | production of Aβ [1]: no production of Aβ was observed

DVEFR (peptide for use in antibody specificity evaluation)
competition with biotinylated EVEFR for anti-EVEFR binding (anti-EVEFR antibodies): somewhat higher level of interference

NYEA: APP695-derived polypeptide with NYEA at the β-secretase cleavage site
Aβ level (HEK293T cells): below the limit of detection | sAPP level (HEK293T cells): below the limit of detection

NFTV: APP695-derived polypeptide with NFTV at the β-secretase cleavage site
Aβ level (HEK293T cells): below the limit of detection | sAPP level (HEK293T cells): below the limit of detection

KFAA: APP695-derived polypeptide with KFAA at the β-secretase cleavage site
Aβ level (HEK293T cells): below the limit of detection | sAPP level (HEK293T cells): below the limit of detection
